Tests used:
V₁ receptor = molecular target: T1, V₁ receptor (Rattus norvegicus, UniProt P30560); assay: V₁ receptor binding assay ([³H]-Arg-vasopressin, rat liver plasma membrane preparations); conditions: 37°C for 10 minutes
T1 construct: Using rat liver plasma membrane preparations; from tissue; host or cells: rat liver plasma membranes
Experimental: Using rat liver plasma membrane preparations prepared according to Ichihara's method [cf: Akira Ichihara, J. Bio. Chem., 258, 9283 (1983)], the plasma membrane (50000dpm, 2x10⁻¹⁰ M) of [³H]-Arg-vasopressin and a test compound (60 µg, 10⁻⁸-10⁻⁴ M) are incubated at 37°C for 10 minutes in 100 mM Tris-HCl buffer (pH: 8.0, 250 µl) containing 5 mM MgCl₂, 1 mM EDTA and 0.1 % BSA. After incubation, the mixture is filtered three times using the glass filter (GF/F) so as to separate the membrane preparation combined with vasopressin and then washed with the buffer (5 ml). This glass filter is taken out and mixed with liquid scintillation cocktail. The amount of [³H]-vasopressin combined with the membrane is measured by liquid scintillation counter and the rate of the inhibitory effect of the test compound is estimated according to the following equation. Rate of the inhibitory effect (%) = 100 -(C1 - B1)/(C0 - B1)X 100 [formula] C¹: The amount of [³H]-vasopressin combined with the membrane in the presence of the test compound (in prescribed amount). C⁰: The amount of [³H]-vasopressin combined with the membrane in the absence of the test compound. B¹: The amount of [³H]-vasopressin combined with the membrane in the presence of the excess amount of vasopressin (10⁻⁶ M).
(§1) The results are expressed as IC₅₀ values, which is the concentration of the test compound required to achieve the inhibitory effect in the rate of 50 %.

V₂ receptor = molecular target: T2, V₂ receptor (Rattus norvegicus, UniProt Q00788); assay: V₂ receptor binding assay ([³H]-Arg-vasopressin, rat kidney plasma membrane preparations); conditions: 4°C for 3 hours
T2 construct: Using rat kidney plasma membrane preparations; from tissue; host or cells: rat kidney plasma membranes
Experimental: Using rat kidney plasma membrane preparations prepared according to O. Hechter's method [cf: J. Bio. […] After incubation, the mixture is filtered using the glass filter (GF/F) so as to separate the membrane preparation combined with vasopressin and then washed twice with the buffer (5 ml). This glass filter is taken out and mixed with liquid scintillation cocktail. The amount of [³H]-vasopressin combined with the membrane is measured by liquid scintillation counter and the rate of the inhibitory effect of the test compound is estimated according to the following equation. Rate of the inhibitory effect (%) = 100 -(C1 - B1)/(C0 - B1)X 100 [formula] C¹: The amount of [³H]-vasopressin combined with the membrane in the presence of the test compound (in prescribed amount). C⁰: The amount of [³H)-vasopressin combined with the membrane in the absence of the test compound. B¹: The amount of [³H]-vasopressin combined with the membrane in the presence of the excess amount of vasopressin (10⁻⁶ M).
as §1

T2 sequence (Q00788 whole entry): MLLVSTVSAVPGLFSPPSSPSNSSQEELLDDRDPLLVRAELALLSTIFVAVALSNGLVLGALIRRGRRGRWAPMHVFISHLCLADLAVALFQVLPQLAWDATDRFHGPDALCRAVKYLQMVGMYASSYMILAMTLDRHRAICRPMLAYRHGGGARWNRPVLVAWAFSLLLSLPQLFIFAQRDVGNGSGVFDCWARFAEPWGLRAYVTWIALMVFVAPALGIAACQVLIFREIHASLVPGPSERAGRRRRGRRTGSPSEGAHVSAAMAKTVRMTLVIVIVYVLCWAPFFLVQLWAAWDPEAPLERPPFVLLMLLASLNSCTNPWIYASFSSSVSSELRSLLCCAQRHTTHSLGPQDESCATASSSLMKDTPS
T1 sequence (P30560 whole entry): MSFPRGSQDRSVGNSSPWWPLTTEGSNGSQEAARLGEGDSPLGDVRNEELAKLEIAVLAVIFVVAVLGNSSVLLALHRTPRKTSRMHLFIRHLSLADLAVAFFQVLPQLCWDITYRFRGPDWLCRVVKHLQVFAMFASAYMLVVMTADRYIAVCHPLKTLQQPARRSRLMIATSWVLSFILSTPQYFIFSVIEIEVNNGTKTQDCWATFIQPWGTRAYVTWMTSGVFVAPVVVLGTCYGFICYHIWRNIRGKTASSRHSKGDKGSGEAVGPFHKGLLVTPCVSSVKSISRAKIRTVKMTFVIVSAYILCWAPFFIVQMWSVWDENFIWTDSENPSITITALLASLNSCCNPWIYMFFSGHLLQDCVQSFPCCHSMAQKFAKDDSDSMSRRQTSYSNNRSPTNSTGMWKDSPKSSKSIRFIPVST

SMILES | IC50 (V₁ receptor) | IC50 (V₂ receptor)
O=C(Nc1ccc(C(=O)N2CCCCc3ccccc32)cc1)C1CCCCC1 [compound 26] | 71 nM | 25 nM
O=C(Nc1ccc(C(=O)N2CCCCc3ccccc32)cc1)c1ccccc1 [compound 27] | 95 nM | 70 nM
Cc1ccccc1C(=O)Nc1ccc(C(=O)N2CCCCc3ccccc32)cc1 [compound 28] | 56 nM | 18 nM
COc1cccc(C(=O)Nc2ccc(C(=O)N3CCCCc4ccccc43)cc2)c1 [compound 29] | 150 nM | 69 nM
O=C(Nc1ccc(C(=O)N2CCCCc3ccccc32)cc1)c1cccc(Cl)c1 [compound 30] | 150 nM | 29 nM
O=C(Nc1ccc(C(=O)N2CCCCc3ccccc32)cc1)c1cc(Cl)cc(Cl)c1 [compound 32] | 300 nM | 16 nM
Cc1ccccc1C(=O)Nc1ccc(C(=O)N2CCCCCc3ccccc32)cc1 [compound 36] | 410 nM | 28 nM
Cc1ccccc1C(=O)Nc1ccc(C(=O)N2CC(C)Cc3ccccc32)cc1 (stereo not shown) [compound 46] | 400 nM | 18 nM
O=C(Nc1ccc(C(=O)N2CCCCc3ccccc32)cc1)c1ccccc1Br [compound 56] | 25 nM | 37 nM
O=C(Nc1ccc(C(=O)N2CCCCc3ccccc32)cc1)c1cccc([N+](=O)[O-])c1 [compound 57] | 460 nM | 160 nM
O=C(Nc1ccc(C(=O)N2CCCCc3ccccc32)cc1)c1cccc(C(F)(F)F)c1 [compound 58] | 400 nM | 140 nM
CCOc1cccc(C(=O)Nc2ccc(C(=O)N3CCCCc4ccccc43)cc2)c1 [compound 59] | 310 nM | 240 nM
COc1cc(OC)cc(C(=O)Nc2ccc(C(=O)N3CCCCc4ccccc43)cc2)c1 [compound 60] | 180 nM | 150 nM
O=C(Nc1ccc(C(=O)N2CCCCc3ccccc32)cc1)c1ccc(Cl)cc1Cl [compound 62] | 98 nM | 23 nM
O=C(Nc1ccc(C(=O)N2CCCCc3ccccc32)cc1)c1c(F)cccc1Cl [compound 63] | 140 nM | 46 nM
Cc1cccc(C)c1C(=O)Nc1ccc(C(=O)N2CCCCc3ccccc32)cc1 [compound 64] | 69 nM | 7 nM
Nc1cccc(C(=O)Nc2ccc(C(=O)N3CCCCc4ccccc43)cc2)c1 [compound 67] | 340 nM | 50 nM
CC(C)NCCCCOc1ccccc1C(=O)Nc1ccc(C(=O)N2CCCCc3ccccc32)cc1 [compound 68] | 13 nM | 190 nM
O=C(Nc1ccc(C(=O)N2CCCCc3ccccc32)cc1)c1cccc(O)c1 [compound 69] | 66 nM | 120 nM
NCCCCOc1ccccc1C(=O)Nc1ccc(C(=O)N2CCCCc3ccccc32)cc1 [compound 70] | 41 nM | 12 nM
Cc1ccccc1C(=O)Nc1ccc(C(=O)N2CCCC(N(C)C)c3ccccc32)c(F)c1 (stereo not shown) [compound 226] | – | 19 nM

SMILES | IC50 (V₁ receptor) | IC50 (V₂ receptor)
Cc1cc(C(=O)N2CCCC(N(C)C)c3ccccc32)ccc1NC(=O)c1ccc(Cl)cc1Cl (stereo not shown) [compound 227] | – | 29 nM
CCN(C)C1CCCN(C(=O)c2ccc(NC(=O)c3ccccc3C)cc2)c2ccccc21 (stereo not shown) [compound 228] | – | 29 nM
CCNC1CCCN(C(=O)c2ccc(NC(=O)c3ccccc3C)cc2)c2ccccc21 (stereo not shown) [compound 229] | – | 29 nM
CN(C)C1CCCN(C(=O)c2ccc(NC(=O)c3cc(F)cc(F)c3)cc2)c2ccccc21 (stereo not shown) [compound 230] | – | 20 nM
Cc1ccccc1C(=O)Nc1ccc(C(=O)N2CCCC(N(C)C)c3ccccc32)cc1F (stereo not shown) [compound 232] | – | 20 nM
COC1(OC)CCN(C(=O)c2ccc(NC(=O)c3ccccc3C)cc2)c2ccccc2C1 [compound 233] | – | 150 nM
CC(=O)ON=C1CCCN(C(=O)c2ccc(NC(=O)c3ccccc3Cl)cc2)c2ccccc21 [compound 234] | – | 140 nM
Cc1ccccc1C(=O)Nc1ccc(C(=O)N2CCCC(O)(CO)c3ccccc32)cc1 (stereo not shown) [compound 237] | – | 41 nM
CN(C)C1CCCN(C(=O)c2ccc(NC(=O)c3ccccc3OCC(N)=O)cc2)c2ccccc21 (stereo not shown) [compound 239] | – | 170 nM
COc1cc(C(=O)N2CCCC(N(C)C)c3ccccc32)ccc1NC(=O)c1ccc(Cl)cc1Cl (stereo not shown) [compound 248] | – | 60 nM
CN1CC(=O)OC2CCN(C(=O)c3ccc(NC(=O)c4ccccc4Cl)cc3)c3ccccc3C21 (stereo not shown) [compound 251] | – | 94 nM
NC1CCCN(C(=O)c2ccc(NC(=O)c3ccccc3Cl)cc2)c2ccccc21 (stereo not shown) [compound 253] | – | 52 nM
Cc1ccccc1C(=O)Nc1ccc(C(=O)N2CCC(C)C(N(C)C)c3ccccc32)cc1 (stereo not shown) [compound 254] | – | 16 nM
O=C(Nc1ccc(C(=O)N2CCCC(NCCc3ccccn3)c3ccccc32)cc1)c1ccccc1Cl (stereo not shown) [compound 257] | – | 45 nM
Cc1ccccc1C(=O)Nc1ccc(C(=O)N2CCCC(N(C)S(C)(=O)=O)c3ccccc32)cc1 (stereo not shown) [compound 258] | – | 200 nM
CCOC(=O)NC1CCCN(C(=O)c2ccc(NC(=O)c3ccccc3C)cc2)c2ccccc21 (stereo not shown) [compound 260] | – | 130 nM
Cc1ccccc1C(=O)Nc1ccc(C(=O)N2CCCC(C)(O)c3ccccc32)cc1 (stereo not shown) [compound 261] | – | 11 nM
CCOC(=O)CN(C)C1CCCN(C(=O)c2ccc(NC(=O)c3ccccc3C)cc2)c2ccccc21 (stereo not shown) [compound 262] | – | 29 nM
Cc1ccccc1C(=O)Nc1ccc(C(=O)N2CCCC(NC3CCCC3)c3ccccc32)c(Cl)c1 (stereo not shown) [compound 263] | – | 53 nM
Cc1ccccc1C(=O)Nc1ccc(C(=O)N2CCCC(N(C)CC(O)CO)c3ccccc32)cc1 (stereo not shown) [compound 264] | – | 30 nM
Cc1ccccc1C(=O)Nc1ccc(C(=O)N2CCCC(N(C)CC#N)c3ccccc32)cc1 (stereo not shown) [compound 265] | – | 25 nM

SMILES | IC50 (V₁ receptor) | IC50 (V₂ receptor)
Cc1ccccc1C(=O)Nc1ccc(C(=O)N2CCCC(N(C)CCCOC3CCCCO3)c3ccccc32)cc1 (stereo not shown) [compound 267] | – | 120 nM
Cc1ccccc1C(=O)Nc1ccc(C(=O)N2CCCC(CN(C)C)c3ccccc32)cc1 (stereo not shown) [compound 268] | – | 18 nM
Cc1ccccc1C(=O)Nc1ccc(C(=O)N2CCCC(NN)c3ccccc32)cc1 (stereo not shown) [compound 282] | – | 380 nM
CNC(=O)NC1CCCN(C(=O)c2ccc(NC(=O)c3ccccc3C)cc2)c2ccccc21 (stereo not shown) [compound 283] | – | 96 nM
CN(C)C1CCCN(C(=O)c2ccc(NC(=O)c3cccc([N+](=O)[O-])c3)cc2)c2ccccc21 (stereo not shown) [compound 289] | – | 71 nM
CNCC(=O)NC1CCCN(C(=O)c2ccc(NC(=O)c3ccccc3C)cc2)c2ccccc21 (stereo not shown) [compound 291] | – | 130 nM
CN(C)C1CCCN(C(=O)c2ccc(NC(=O)c3cccc(N)c3)cc2)c2ccccc21 (stereo not shown) [compound 292] | – | 180 nM
CCN(CC)CCOc1cc(C(=O)N2CCCC(N(C)C)c3ccccc32)ccc1NC(=O)c1ccccc1C (stereo not shown) [compound 294] | – | 330 nM
Cc1ccccc1C(=O)Nc1ccc(C(=O)N2CCCC(N(C)CC(=O)N(C)C)c3ccccc32)cc1 (stereo not shown) [compound 295] | – | 26 nM
Cc1ccccc1C(=O)Nc1ccc(C(=O)N2CCCC(N(C)C(=O)Cn3ccnc3)c3ccccc32)cc1 (stereo not shown) [compound 297] | – | 51 nM
Cc1ccccc1C(=O)Nc1ccc(C(=O)N2CCCC(NC(=O)CN)c3ccccc32)cc1 (stereo not shown) [compound 299] | – | 220 nM
CC(=O)Nc1cccc(C(=O)Nc2ccc(C(=O)N3CCCC(N(C)C)c4ccccc43)cc2)c1 (stereo not shown) [compound 300] | – | 480 nM
Cc1ccccc1C(=O)Nc1ccc(C(=O)N2CCCC(NC(=O)CNC(=O)OC(C)(C)C)c3ccccc32)cc1 (stereo not shown) [compound 301] | – | 140 nM
CN(C)C1CCCN(C(=O)c2ccc(NC(=O)Cc3ccccc3)cc2)c2ccccc21 (stereo not shown) [compound 305] | – | 38 nM
CN(C)C1CCCN(C(=O)c2ccc(NC(=O)CCc3ccccc3)cc2)c2ccccc21 (stereo not shown) [compound 306] | – | 77 nM
CCN(C)C1CCCN(C(=O)c2ccc(NC(=O)c3ccccc3Cl)cc2Cl)c2ccccc21 (stereo not shown) [compound 314] | – | 96 nM
Cc1ccccc1N(C)CC(=O)Nc1ccc(C(=O)N2CCCC(N(C)C)c3ccccc32)cc1 (stereo not shown) [compound 317] | – | 72 nM
CNC1CCCN(C(=O)c2ccc(NC(=O)c3ccccc3C)cc2)c2c(Cl)cccc21 (stereo not shown) [compound 318] | – | 60 nM
CN(C)C1CCCN(C(=O)c2ccc(NC(=O)COc3ccccc3)cc2)c2ccccc21 (stereo not shown) [compound 319] | – | 58 nM
CNC1CCCCN(C(=O)c2ccc(NC(=O)c3ccccc3C)cc2)c2ccccc21 (stereo not shown) [compound 320] | – | 39 nM

— EP0450097B1, “BENZOHETEROCYCLIC COMPOUNDS” (OTSUKA PHARMACEUTICAL CO., LTD., priority 1989, dated 1991)
